Test results: patent publication US20070066672A1, “Benzimidazole derivatives and use thereof as peptide deformylase inhibitors” (Arpida A/S, priority 2003, published 2007)

Columns and labels:
[1] = target: T1, Peptide Deformylase (PDF) (Staphylococcus aureus, UniProt P68826); experiment: Bacterial peptide deformylase (PDF) assay, colorimetric cell free, enzyme from S. aureus; assay type: biochemical; settings: f-Met-Ala substrate, TNBS detection at 420 nm
T1 construct: made in house
T1 sequence (P68826 1-183): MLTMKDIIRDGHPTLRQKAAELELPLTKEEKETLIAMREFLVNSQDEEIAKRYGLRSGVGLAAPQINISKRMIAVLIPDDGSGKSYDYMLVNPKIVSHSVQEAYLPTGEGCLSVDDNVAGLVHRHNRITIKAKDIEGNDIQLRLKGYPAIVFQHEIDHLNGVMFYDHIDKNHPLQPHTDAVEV
From the text: (§1) To find inhibitors of Peptide Deformylase (PDF), a colorimetric cell free assay for measuring the enzymatic activity of PDF has been adapted to the microtiter plate format (96 wells). The assay comprises three components, purified PDF, f-Met-Ala as substrate and TNBS as the detecting agent of primary amino groups. The resulting TNP_NH-Met-Ala sulfite complex can be detected at 420 nm. PDF enzymes, containing Fe^2+ as the native metal, are purified and are stabilized by the addition of tris(2-carboxyethyl)phosphine (TCEP).
(§2) The IC50 value of a compound of the invention as a bacterial PDF inhibitor was determined using the following assay.
(§3) Assay buffer 0.1 M MOPS pH was adjusted to 7.2 with NaOH, containing 0.25 M NaCl, 100 μg/mL catalase and 1 mg/mL BSA.
(§4) E. coli enzyme (2.5 mg/ml) 10 μl+290 μl Assay buffer, 1 μl per ml enzyme mix. S. aureus (15 mg/ml) 10 μl+990 μl Assay buffer, 0.3 μl per ml enzyme mix.
(§5) Substrate mix: 10 mM f-Met-Ala was made up from 200 mM f-Met-Ala in methanol with assay buffer.
(§6) TNBS solution: Freshly dilute 1 M TNBS stock solution diluted 1:10 with water.
(§7) Buffer C: 0.5 M borate buffer adjusted to pH 9.5 with NaOH.
(§8) Buffer D: 0.2 ml of freshly prepared 0.5 M Na2SO3 was mixed with 9.8 mL of 0.5M NaH2PO4.
(§9) Inhibitor solution: 2 mM Sodium 4-(hydroxymercurio)benzoate in assay buffer.
(§10) Compound mix: Compound of formula I dissolved in DMSO in a 10 mg/mL stock solution. Further dilutions were made in DMSO in the concentration range between 0.05 to 100 mM.
(§11) The assay was performed in a 96 Microtiter plate containing test compound. To each well containing test compound mix was added 75 microliter of enzyme mix from E. coli followed by the addition of 25 microliter of substrate mix. The resulting mix was incubated for 30 minutes at room temperature with shaking. TNBS solution (50 microliter/well) was added and the resulting mixture was incubated for 15 minutes under shaking. Buffer C was then added (20 microliter/well). After incubating at room temperature for 15 minutes under shaking, buffer D was added (50 microliter/well). The optical […] was then measured at 420 nm, thereby determining the IC50 value.
The assay was repeated using enzyme mix from S. aureus.

[2] = target: T2, Peptide Deformylase (PDF) (Escherichia coli, UniProt P0A6K3); experiment: Bacterial peptide deformylase (PDF) assay, colorimetric cell free, enzyme from E. coli; assay type: biochemical
T2 construct: made in house
From the text: as §1, §2, §3, §4, §5, §6, §7, §8, §9, §10, §11

T2 sequence (P0A6K3 whole entry): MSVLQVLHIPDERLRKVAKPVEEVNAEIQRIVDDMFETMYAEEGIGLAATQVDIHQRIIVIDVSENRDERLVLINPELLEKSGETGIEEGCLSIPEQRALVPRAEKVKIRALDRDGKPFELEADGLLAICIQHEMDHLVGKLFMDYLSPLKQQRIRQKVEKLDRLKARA

| SMILES | IC50 [1] [nM] | IC50 [2] [nM] |
| --- | --- | --- |
| COC(=O)CNC(=O)c1ccc2c(c1)nc(C(CC(C)C)NC(=O)CCC(=O)O)n2CCO (stereo not drawn) [Example 28, N-{1-[1-(2-Hydroxy-ethyl)-5-(methoxycarbonylmethyl-carbamoyl)-1H-benzoimidazol-2-yl]-3-methylbutyl}-succinamic acid] | 34400 | > 200000 |
| CCCCn1c(C(Cc2cccc3ccccc23)NC(=O)CCC(=O)O)nc2cc(C(=O)NCC(=O)OC)ccc21 (stereo not drawn) [Example 18] | 74 | 2700 |
| COC(=O)CNC(=O)c1ccc2c(c1)nc(C(Cc1ccccc1)NC(=O)CCC(=O)O)n2Cc1ccco1 (stereo not drawn) [Example 5, N-{1-[1-Furan-2-ylmethyl-5-(methoxycarbonylmethyl-carbamoyl)-1H-benzoimidazol-2-yl]-2-phenyl-ethyl}-succinamic acid] | 1600 | 12900 |
